From PubChem BioAssay AID200 (DTP/NCI, 2004)
Values joined by “and” are separate entries in the source; they are usually repeats but may differ in a detail not shown here. Equal entries are not always repeated. Inconclusive results and toxic doses are left out.

Test system: B6C3F1 mice, B16 melanoma ip, median survival T/C
Assay: NCI In Vivo Anticancer Drug Screen. Data for tumor model B16 Melanoma (intraperitoneal) in B6C3F1 mice
Details: endpoint: median survival time, schedule: Q01DX009 (ip), higher = longer survival
Procedure, shortened: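 Tumor-bearing mice received test compound; a separate group got vehicle only. Survival was then compared, with results reported as treated over control.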

[1] = dose: 50.0 mg/kg/injection, vehicle: saline
[2] = dose: 100.0 mg/kg/injection, vehicle: saline
[3] = dose: 200.0 mg/kg/injection, vehicle: saline
[4] = dose: 400.0 mg/kg/injection, vehicle: saline
[5] = dose: 800.0 mg/kg/injection, vehicle: saline
[6] = dose: 12.5 mg/kg/injection, vehicle: saline
[7] = dose: 12.5 mg/kg/injection, vehicle: Klucel (hydroxypropylcellulose) (HPC)
[8] = dose: 25.0 mg/kg/injection, vehicle: Klucel (hydroxypropylcellulose) (HPC)
[9] = dose: 50.0 mg/kg/injection, vehicle: Klucel (hydroxypropylcellulose) (HPC)
[10] = dose: 100.0 mg/kg/injection, vehicle: Klucel (hydroxypropylcellulose) (HPC)
[11] = dose: 200.0 mg/kg/injection, vehicle: Klucel (hydroxypropylcellulose) (HPC)
[12] = dose: 12.5 mg/kg/injection, vehicle: saline with Tween-80
[13] = dose: 25.0 mg/kg/injection, vehicle: saline with Tween-80
[14] = dose: 50.0 mg/kg/injection, vehicle: saline with Tween-80
[15] = dose: 100.0 mg/kg/injection, vehicle: saline with Tween-80
[16] = dose: 200.0 mg/kg/injection, vehicle: saline with Tween-80
[17] = dose: 400.0 mg/kg/injection, vehicle: saline with Tween-80

Question: With `NCCc1ccc(O)c(O)c1` as the compound, how does the T/C [1] read?
Answer: 96 % of control

Question: And the T/C [2]?
Answer: 106 % of control [middle of 4 runs]

Question: What about the T/C [3] of the same compound?
Answer: 109 % of control [middle of 4 runs]

Question: And the T/C [4]?
Answer: 115 % of control [middle of 4 runs]

Question: What about the T/C (dose: 500.0 mg/kg/injection, vehicle: saline) of the same compound?
Answer: 119 % of control

Question: And the T/C (dose: 600.0 mg/kg/injection, vehicle: saline)?
Answer: 114 % of control and 112 % of control and 118 % of control

Question: What about the T/C [5] of the same compound?
Answer: 121 % of control

Question: For `CCOC(=O)N1CCN(CCCCCCOc2ccc(C3CCCCC3)cc2)CC1`, which T/C (dose: 1.56 mg/kg/injection, vehicle: saline) is on record?
Answer: 110 % of control

Question: What about the T/C (dose: 3.13 mg/kg/injection, vehicle: saline) of the same compound?
Answer: 93 % of control

Question: What about the T/C (dose: 6.25 mg/kg/injection, vehicle: saline) of the same compound?
Answer: 101 % of control

Question: What about the T/C [6] of the same compound?
Answer: 97 % of control and 105 % of control

Question: How did the T/C [2] turn out when `S=C(S)NN1CCOCC1` was run?
Answer: 98 % of control

Question: And the T/C [3]?
Answer: 99 % of control

Question: What about the T/C [4] of the same compound?
Answer: 96 % of control

Question: What does the source list for `CC1CCC(n2cnc3c(Cl)ncnc32)O1` (stereo unspecified)?
Answer: T/C [7]: 97 % of control and 104 % of control; T/C [8]: 92 % of control and 104 % of control; T/C [9]: 92 % of control and 98 % of control; T/C [10]: 97 % of control and 104 % of control; T/C [11]: 92 % of control and 93 % of control

Question: How did the T/C (dose: 8.0 micrograms/kg/injection, vehicle: saline) turn out when `C=C(C)C(=O)N(C)C(C)C(=O)OC1CC(=O)N(C)c2cc(cc(OC)c2Cl)C(OC)C(C)=C/C=C/C(OC)C2(O)CC(OC(=O)N2)C(C)C2OC12C` (stereo unspecified) was run?
Answer: 169 % of control

Question: And the T/C (dose: 16.0 micrograms/kg/injection, vehicle: saline)?
Answer: 182 % of control

Question: And the T/C (dose: 32.0 micrograms/kg/injection, vehicle: saline)?
Answer: 180 % of control

Question: For `Cn1cnc([N+](=O)[O-])c1SCC(=O)O`, which T/C [12] is on record?
Answer: 104 % of control

Question: And the T/C [6]?
Answer: 109 % of control

Question: And the T/C [13]?
Answer: 89 % of control

Question: What about the T/C (dose: 25.0 mg/kg/injection, vehicle: saline) of the same compound?
Answer: 114 % of control

Question: What about the T/C [14] of the same compound?
Answer: 103 % of control

Question: And the T/C [1]?
Answer: 122 % of control

Question: What about the T/C [15] of the same compound?
Answer: 98 % of control

Question: And the T/C [2]?
Answer: 108 % of control

Question: And the T/C [16]?
Answer: 97 % of control

Question: And the T/C [3]?
Answer: 104 % of control

Question: And the T/C [17]?
Answer: 97 % of control

Question: What about the T/C [4] of the same compound?
Answer: 99 % of control

Question: Which results are given for `CNC(=S)N/N=C(/C)CCc1c(C)nn(C(=S)NC)c1C`?
Answer: T/C [7]: 103 % of control; T/C [8]: 106 % of control; T/C [9]: 102 % of control

Question: `CCCC(=O)O.CCCC(=O)O.CCCC(=O)O.CCCC(=O)O.[Rh].[Rh]` was tested. Which T/C (dose: 0.03 mg/kg/injection, vehicle: saline + alcohol) did it give?
Answer: 100 % of control and 101 % of control

Question: What about the T/C (dose: 0.06 mg/kg/injection, vehicle: saline + alcohol) of the same compound?
Answer: 103 % of control and 104 % of control

Question: What about the T/C (dose: 0.12 mg/kg/injection, vehicle: saline + alcohol) of the same compound?
Answer: 100 % of control and 107 % of control

Question: And the T/C (dose: 0.25 mg/kg/injection, vehicle: saline + alcohol)?
Answer: 98 % of control and 101 % of control

Question: And the T/C (dose: 0.5 mg/kg/injection, vehicle: saline + alcohol)?
Answer: 101 % of control and 104 % of control

Question: And the T/C (dose: 1.0 mg/kg/injection, vehicle: saline + alcohol)?
Answer: 108 % of control

Question: How did the T/C [1] turn out when `CCN(CC)C(=S)S` was run?
Answer: 92 % of control

Question: And the T/C (dose: 50.0 mg/kg/injection, vehicle: sodium bicarbonate)?
Answer: 105 % of control

Question: What about the T/C [2] of the same compound?
Answer: 96 % of control

Question: And the T/C (dose: 100.0 mg/kg/injection, vehicle: sodium bicarbonate)?
Answer: 92 % of control

Question: What about the T/C [3] of the same compound?
Answer: 102 % of control

Question: What about the T/C (dose: 200.0 mg/kg/injection, vehicle: sodium bicarbonate) of the same compound?
Answer: 105 % of control

Question: And the T/C [4]?
Answer: 94 % of control

Question: And the T/C (dose: 400.0 mg/kg/injection, vehicle: sodium bicarbonate)?
Answer: 105 % of control

Question: What about the T/C [5] of the same compound?
Answer: 95 % of control

Question: And the T/C (dose: 800.0 mg/kg/injection, vehicle: sodium bicarbonate)?
Answer: 95 % of control

Question: Which T/C (dose: 0.5 mg/kg/injection, vehicle: water) does the source give for `CN(C)/N=N/c1[nH]cnc1C(N)=O.[Cl][Cu][Cl]` here?
Answer: 106 % of control

Question: And the T/C (dose: 1.0 mg/kg/injection, vehicle: water)?
Answer: 106 % of control

Question: And the T/C (dose: 2.0 mg/kg/injection, vehicle: water)?
Answer: 115 % of control

Question: What about the T/C (dose: 4.0 mg/kg/injection, vehicle: water) of the same compound?
Answer: 109 % of control

Question: What about the T/C (dose: 8.0 mg/kg/injection, vehicle: water) of the same compound?
Answer: 109 % of control

Question: With `Cc1c(O)ccc(=O)n1O` as the compound, how does the T/C (dose: 16.0 mg/kg/injection, vehicle: saline with Tween-80) read?
Answer: 101 % of control

Question: And the T/C (dose: 32.0 mg/kg/injection, vehicle: saline with Tween-80)?
Answer: 98 % of control

Question: And the T/C (dose: 64.0 mg/kg/injection, vehicle: saline with Tween-80)?
Answer: 101 % of control

Question: And the T/C (dose: 128.0 mg/kg/injection, vehicle: saline with Tween-80)?
Answer: 104 % of control

Question: Which results are given for `N#CC(Br)(Br)C(N)=O`?
Answer: T/C (dose: 0.31 mg/kg/injection, vehicle: saline): 96 % of control; T/C (dose: 1.25 mg/kg/injection, vehicle: saline): 87 % of control; T/C (dose: 37.5 micrograms/kg/injection, vehicle: saline): 98 % of control; T/C (dose: 75.0 micrograms/kg/injection, vehicle: saline): 98 % of control; T/C (dose: 150.0 micrograms/kg/injection, vehicle: saline): 96 % of control; T/C (dose: 300.0 micrograms/kg/injection, vehicle: saline): 93 % of control

Question: Which T/C (dose: 3.12 mg/kg/injection, vehicle: saline with Tween-80) does the source give for `COC1=CC(=O)C(OC)=C(OC)C1=O` here?
Answer: 97 % of control

Question: And the T/C (dose: 6.25 mg/kg/injection, vehicle: saline with Tween-80)?
Answer: 92 % of control

Question: And the T/C [12]?
Answer: 99 % of control

Question: `Nc1n[n+](-c2ccc(Cl)cc2)no1` was tested. Which T/C (dose: 3.12 mg/kg/injection, vehicle: water) did it give?
Answer: 109 % of control

Question: And the T/C (dose: 6.25 mg/kg/injection, vehicle: water)?
Answer: 102 % of control and 107 % of control

Question: And the T/C (dose: 12.5 mg/kg/injection, vehicle: water)?
Answer: 103 % of control

Question: What about the T/C (dose: 25.0 mg/kg/injection, vehicle: water) of the same compound?
Answer: 111 % of control and 123 % of control

Question: What about the T/C (dose: 50.0 mg/kg/injection, vehicle: water) of the same compound?
Answer: 116 % of control

Question: What does the source list for `CCCC1CC(C(=O)NC(C(C)O)C2OC(SC)C(O)C(O)C2O)N(C)C1` (stereo unspecified)?
Answer: T/C [9]: 113 % of control; T/C [10]: 95 % of control; T/C [11]: 100 % of control; T/C (dose: 400.0 mg/kg/injection, vehicle: Klucel (hydroxypropylcellulose) (HPC)): 89 % of control

Question: Which results are given for `CC(=O)C[n+]1ccc(C)cc1Sc1ccccc1C`?
Answer: T/C [12]: 97 % of control; T/C [13]: 97 % of control; T/C [14]: 96 % of control; T/C [15]: 100 % of control; T/C [16]: 101 % of control

Question: How did the T/C [12] turn out when `CN(N=O)C(=O)NCCCCCNC(=O)N(C)N=O` was run?
Answer: 98 % of control

Question: And the T/C [13]?
Answer: 100 % of control

Question: What about the T/C [14] of the same compound?
Answer: 109 % of control

Question: What about the T/C [15] of the same compound?
Answer: 110 % of control

Question: With `CCCOC(=O)c1ccc(O)cc1` as the compound, how does the T/C [12] read?
Answer: 103 % of control

Question: What about the T/C [13] of the same compound?
Answer: 109 % of control

Question: What about the T/C [14] of the same compound?
Answer: 109 % of control

Question: What about the T/C [15] of the same compound?
Answer: 89 % of control

Question: What about the T/C [16] of the same compound?
Answer: 107 % of control

Question: And the T/C [17]?
Answer: 100 % of control

Question: Which T/C [15] does the source give for `CN(C)CCC(O)c1c[nH]c2ccccc12` (stereo unspecified) here?
Answer: 98 % of control

Question: What about the T/C [16] of the same compound?
Answer: 94 % of control

Question: What about the T/C [17] of the same compound?
Answer: 94 % of control

Question: With `O=c1[nH]cc(O)c(=O)[nH]1` as the compound, how does the T/C [9] read?
Answer: 102 % of control

Question: And the T/C [10]?
Answer: 96 % of control

Question: What about the T/C [11] of the same compound?
Answer: 103 % of control
